# Reference: patent publication US12459894B2, “Orally active melanocortin receptor-4 compounds” (Palatin Technologies, Inc., priority 2018, dated 2025)
# Marks after values point to notes of the source that are not given here.
# Legend:
# mMC1r = target: T1, mMC1r (Mus musculus, UniProt Q01727); test: cAMP assay, B16-F1 cells, NDP-α-MSH reference; format: cell-based; settings: vs NDP-α-MSH
# T1 construct: endogenous in cells; host or cells: B16-F1 mouse melanoma cells
# Protocol: (§1) Melanocortin receptor binding and function of Compound 7.1 was tested. Ki binding values (nM) were calculated utilizing the percent inhibit of the binding of iodine-125 labeled NDP-α-MSH against B16-F1 cells for mMC1r, and human recombinant CHO cells for hMC3r, hMC4r and hMC5r, with the inhibition constant calculated using the Cheng Prusoff equation. Functional results (EC50 and efficacy) were calculated utilizing cAMP assays with NDP-α-MSH for mMC1r, hMC3r and hMC4r, ACTH for hMC2r, and α-MSH for hMC5r for agonist measures, with the same target cells for melanocortin receptors mMC1r, hMC3r, hMC4r and hMC5r, and human recombinant Cloudman M3 cells for hMC2r.
# hMC2r = target: T2, hMC2r (Homo sapiens, UniProt Q01718); test: cAMP assay, human recombinant Cloudman M3 cells, ACTH reference; format: cell-based; settings: vs ACTH
# T2 construct: expressed in transfected cells; host or cells: Cloudman M3 cells
# T2 sequence (Q01718 whole entry): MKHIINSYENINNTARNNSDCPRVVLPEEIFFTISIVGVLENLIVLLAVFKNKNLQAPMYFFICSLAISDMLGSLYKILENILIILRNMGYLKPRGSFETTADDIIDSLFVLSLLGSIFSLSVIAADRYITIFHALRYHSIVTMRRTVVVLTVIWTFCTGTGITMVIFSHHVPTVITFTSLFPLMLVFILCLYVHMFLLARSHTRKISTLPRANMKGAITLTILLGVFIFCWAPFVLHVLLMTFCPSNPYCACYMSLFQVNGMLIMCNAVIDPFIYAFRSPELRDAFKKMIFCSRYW
# T2 sequence (Q9D159 whole entry partner): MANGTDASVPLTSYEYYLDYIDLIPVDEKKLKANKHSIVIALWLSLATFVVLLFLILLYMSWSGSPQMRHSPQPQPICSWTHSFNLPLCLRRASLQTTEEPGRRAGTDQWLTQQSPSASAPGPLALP
# Protocol: as §1
# hMC3r = target: T3, hMC3r (Homo sapiens, UniProt P41968); test: cAMP assay, human recombinant CHO cells, NDP-α-MSH reference; format: cell-based; settings: vs NDP-α-MSH
# T3 construct: expressed in transfected cells; host or cells: CHO
# T3 sequence (P41968 whole entry): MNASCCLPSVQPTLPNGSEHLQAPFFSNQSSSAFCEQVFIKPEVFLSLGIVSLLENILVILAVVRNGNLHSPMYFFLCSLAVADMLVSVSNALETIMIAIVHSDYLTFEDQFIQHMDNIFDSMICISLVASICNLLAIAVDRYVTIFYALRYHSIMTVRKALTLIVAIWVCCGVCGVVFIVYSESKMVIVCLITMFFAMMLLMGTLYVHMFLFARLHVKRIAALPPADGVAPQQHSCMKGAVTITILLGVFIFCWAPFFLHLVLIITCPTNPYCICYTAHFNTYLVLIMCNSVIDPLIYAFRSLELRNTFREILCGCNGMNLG
# Protocol: as §1
# hMC5r = target: T4, hMC5r (Homo sapiens, UniProt P33032); test: cAMP assay, human recombinant CHO cells, α-MSH reference; format: cell-based; settings: vs α-MSH
# T4 construct: expressed in transfected cells; host or cells: CHO
# T4 sequence (P33032 whole entry): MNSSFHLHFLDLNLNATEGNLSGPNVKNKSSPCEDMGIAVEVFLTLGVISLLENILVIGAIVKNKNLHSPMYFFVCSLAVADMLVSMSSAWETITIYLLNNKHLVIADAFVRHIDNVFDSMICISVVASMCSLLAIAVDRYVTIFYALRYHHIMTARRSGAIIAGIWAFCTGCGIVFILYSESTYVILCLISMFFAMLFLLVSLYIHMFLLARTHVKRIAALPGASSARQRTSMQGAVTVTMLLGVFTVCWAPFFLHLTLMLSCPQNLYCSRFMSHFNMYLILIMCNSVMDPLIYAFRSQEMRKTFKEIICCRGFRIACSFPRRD
# Protocol: as §1
# C57BL/6 male DIO mice = test: Body weight and food intake in vivo study in diet induced obese (DIO) mice; design: species or system mouse
# Protocol: Compound 7.1 was assessed in a body weight and food intake in vivo study in diet induced obese (DIO) mice. C57BL/6 male DIO mice were utilized, that were 17 weeks of age on arrival. Animals were pre-conditioned on a high-fat diet for 11 weeks by Jackson Labs. […] Animals were single housed within a limited access rodent facility, and provided ad libitum with a commercial rodent diet and free access to drinking water. Animals were randomized into five groups, a vehicle group, three dose levels of compound 7.1 (3 mg/kg, 10 mg/kg and 30 mg/kg), and Peptide A, a positive control cyclic peptide of the formula Ac-Arg-cyclo(Om-Asn-D-Phe-Arg-Trp-Glu)-NH2. Following three days of sham dosing, animals were dosed for three days, with vehicle or Compound 7.1 dosed orally once daily at within one hour of lights out in the AM, and Peptide A dosed by subcutaneous injection twice daily within one hour before lights out and six hours after lights out. Body weights were measured one hour prior to lights out, and feed weights were measured both one hour prior to lights out and six hours post lights out.
# • *p<0.05 vs. sham (vehicle control) using two-way ANOVA followed by Dunnett's post-test. • **p<0.01 vs sham (vehicle control) using two-way ANOVA followed by Dunnett's post-test.
# [1] = Plasma concentrations following oral administration; format: in vivo, Sprague-Dawley rats; settings: Sprague-Dawley, rat, oral 30 mg/kg
# Protocol: Plasma samples were measured at 15 minutes (2 animals) and 30 minutes, 1 hour, 2 hours, 4 hours, 8 hours and 24 hours (3 animals) post oral administration.
# [2] = system: male mice homogygous for the obese spontaneous mutation, Lep^ob; test: Oral administration in leptin-deficient obese mice; format: in vivo, mouse; settings: 30 mg/kg twice daily for six consecutive days
# Protocol: Male mice homogygous for the obese spontaneous mutation, Lep^ob, with resulting leptin protein deficiency, were individually housed with free access to feed and drinking water. All animals were sham-dosed twice daily for five days prior to initial drug administration, utilizing a vehicle dose of 3.2% mannitol and […] tris(hydroxymethyl)aminomethane at pH 7.4. On day 6 a cohort of the mice received compound 7.1 dissolved into the vehicle twice daily for six consecutive days at a dose of 30 mg/kg. Body weight of animals was measured daily, with data analyzed as the percent change from baseline of each individual animal, where baseline was defined as the average weight during the first three days of sham dosing. The averaged percent change from baseline of a vehicle group was then subtracted from each value to correct for continued weight gain or other study-wide factors. The change in body weight is shown in FIG. 3 starting on study day […], the first day of administration of compound 7.1.
# MC4r (−/−) mice = test: Oral administration in MC4r knockout mice; format: in vivo, mouse; settings: 30 mg/kg twice daily oral gavage
# Protocol: (§2) Feed intake and body weight was evaluated in MCr4 knockout (MC4r −/−) mice (Jackson Laboratories) compared to C57BI/6 DIO mice. […] Feed weights were taken at time 0, 2, 6 and 24 hours post lights out. […] The change in body weight is shown in FIG. 4 starting on study day 5, the first day of administraton of compound 7.1. […] Additionally, there was a statistically significant mean difference, 2.8%, 95% Cl (1.281, 4.253), and p value<0.0001 between DIO mice receiving compound 7.1 and MC4r (−/−) receiving compound 7.1.
# C57BI/6 DIO mice = test: Oral administration in DIO mice (comparison to MC4r knockout mice); format: in vivo, mouse
# Protocol: as §2
# MC4r = MC4r (Homo sapiens, UniProt P32245); test: cAMP assay, human recombinant CHO cells, NDP-α-MSH reference; format: cell-based; design: expressed in transfected cells; host or cells: CHO; settings: vs NDP-α-MSH
# MC4r, sequence (P32245 whole entry): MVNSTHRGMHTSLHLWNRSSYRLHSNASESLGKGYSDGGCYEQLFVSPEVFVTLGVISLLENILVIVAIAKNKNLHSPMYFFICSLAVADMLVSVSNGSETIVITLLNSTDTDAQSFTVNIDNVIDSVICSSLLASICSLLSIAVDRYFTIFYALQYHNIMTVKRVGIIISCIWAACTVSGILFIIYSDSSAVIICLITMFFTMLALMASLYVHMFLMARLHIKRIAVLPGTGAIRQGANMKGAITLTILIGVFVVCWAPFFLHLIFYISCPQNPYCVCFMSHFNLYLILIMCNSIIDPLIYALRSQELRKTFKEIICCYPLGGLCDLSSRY
# Protocol: as §1
# T1 sequence (Q01727 whole entry): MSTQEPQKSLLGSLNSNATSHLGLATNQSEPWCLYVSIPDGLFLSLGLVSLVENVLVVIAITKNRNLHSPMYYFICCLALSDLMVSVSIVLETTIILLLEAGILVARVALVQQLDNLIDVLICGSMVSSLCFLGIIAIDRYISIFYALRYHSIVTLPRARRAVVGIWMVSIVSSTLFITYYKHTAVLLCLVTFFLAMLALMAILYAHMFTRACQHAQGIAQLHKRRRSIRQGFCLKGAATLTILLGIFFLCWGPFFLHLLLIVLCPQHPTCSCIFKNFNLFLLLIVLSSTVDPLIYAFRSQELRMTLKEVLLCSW
smiles,measurement,setting,value
"CC(=O)N1CCC(N(CC(C)C)N2CCN(C(=O)[C@@H](Cc3ccc(Cl)cc3)NC(=O)C(C)(C)N)CC2)CC1 [Compound 7.1, N-[(1R)-2-[4-[(1-acetyl-4-piperidyl)-isobutyl-amino]piperazin-1-yl]-1-[(4-chlorophenyl)methyl]-2-oxo-ethyl]-2-amino-2-methyl-propanamide]",cAMP Efficacy,mMC1r,72%
same,cAMP Efficacy,hMC2r,22%
same,cAMP Efficacy,hMC3r,28%
same,cAMP Efficacy,hMC5r,20%
same,Body Weight Change (%) Mean,"C57BL/6 male DIO mice; 3 mg/kg orally once daily, Day 0",0%
same,Food Intake - 24 Hours (g) Mean,"C57BL/6 male DIO mice; 3 mg/kg orally once daily, Day 0, 24 hours post lights out",1.90 g
same,Body Weight Change (%) Mean,"C57BL/6 male DIO mice; 3 mg/kg orally once daily, Day 1",−1.97%
same,Food Intake - 24 Hours (g) Mean,"C57BL/6 male DIO mice; 3 mg/kg orally once daily, Day 1, 24 hours post lights out",2.03 g
same,Body Weight Change (%) Mean,"C57BL/6 male DIO mice; 3 mg/kg orally once daily, Day 2",−2.92%
same,Food Intake - 24 Hours (g) Mean,"C57BL/6 male DIO mice; 3 mg/kg orally once daily, Day 2, 24 hours post lights out",2.11 g
same,Body Weight Change (%) Mean,"C57BL/6 male DIO mice; 3 mg/kg orally once daily, Day 3",−3.80* %
same,body weight,"C57BL/6 male DIO mice; 3 mg/kg, day 3",body weight loss on day 3
same,Body Weight Change (%) Mean,"C57BL/6 male DIO mice; 10 mg/kg orally once daily, Day 0",0%
same,Food Intake - 24 Hours (g) Mean,"C57BL/6 male DIO mice; 10 mg/kg orally once daily, Day 0, 24 hours post lights out",1.82 g
same,Body Weight Change (%) Mean,"C57BL/6 male DIO mice; 10 mg/kg orally once daily, Day 1",−2.48* %
same,Food Intake - 24 Hours (g) Mean,"C57BL/6 male DIO mice; 10 mg/kg orally once daily, Day 1, 24 hours post lights out",1.78 g
same,Body Weight Change (%) Mean,"C57BL/6 male DIO mice; 10 mg/kg orally once daily, Day 2",−3.77** %
same,Food Intake - 24 Hours (g) Mean,"C57BL/6 male DIO mice; 10 mg/kg orally once daily, Day 2, 24 hours post lights out",2.20 g
same,Body Weight Change (%) Mean,"C57BL/6 male DIO mice; 10 mg/kg orally once daily, Day 3",−4.35** %
same,Body Weight Change (%) Mean,"C57BL/6 male DIO mice; 30 mg/kg orally once daily, Day 0",0%
same,Food Intake - 24 Hours (g) Mean,"C57BL/6 male DIO mice; 30 mg/kg orally once daily, Day 0, 24 hours post lights out",1.62* g
same,Body Weight Change (%) Mean,"C57BL/6 male DIO mice; 30 mg/kg orally once daily, Day 1",−4.41** %
same,Food Intake - 24 Hours (g) Mean,"C57BL/6 male DIO mice; 30 mg/kg orally once daily, Day 1, 24 hours post lights out",1.60* g
same,Body Weight Change (%) Mean,"C57BL/6 male DIO mice; 30 mg/kg orally once daily, Day 2",−5.82** %
same,Food Intake - 24 Hours (g) Mean,"C57BL/6 male DIO mice; 30 mg/kg orally once daily, Day 2, 24 hours post lights out",1.91* g
same,Body Weight Change (%) Mean,"C57BL/6 male DIO mice; 30 mg/kg orally once daily, Day 3",−7.08** %
same,feed intake,"C57BL/6 male DIO mice; 30 mg/kg, 24 hours post lights out, entirety of the study, vs sham",significantly inhibited feed intake
same,body weight,"C57BL/6 male DIO mice; daily 10 mg/kg and 30 mg/kg, day 1 to 3",significant body weight loss
same,Tmax,[1],2 h
same,decrease in body weight compared to vehicle controls,[2],4.8%
same,food consumption vs vehicle only,MC4r (−/−) mice,no differences in food consumption
same,food consumption vs vehicle only,"C57BI/6 DIO mice; 30 mg/kg twice daily oral gavage, DIO mice, 6 and 24 hour timepoints",significantly decreased
same,mean difference in body weight change between DIO mice and MC4r (−/−) mice receiving compound,"C57BI/6 DIO mice; 30 mg/kg twice daily oral, p value<0.0001",2.8%
same,body weight vs own vehicle group,"C57BI/6 DIO mice; 30 mg/kg two daily administrations via oral gavage, DIO mice",significant body weight loss
same,mean percentage body weight change difference between treated group and vehicle,"C57BI/6 DIO mice; DIO mice, 30 mg/kg twice daily oral",4.9%
same,cAMP Efficacy,MC4r,91%
